Laboratory results published in PMC9321829 (Chembiochem, 2022).

Biological target: T1, TAL amo (Aeromonas molluscorum, UniProt R1H7C8)
T1 sequence (R1H7C8 1-531): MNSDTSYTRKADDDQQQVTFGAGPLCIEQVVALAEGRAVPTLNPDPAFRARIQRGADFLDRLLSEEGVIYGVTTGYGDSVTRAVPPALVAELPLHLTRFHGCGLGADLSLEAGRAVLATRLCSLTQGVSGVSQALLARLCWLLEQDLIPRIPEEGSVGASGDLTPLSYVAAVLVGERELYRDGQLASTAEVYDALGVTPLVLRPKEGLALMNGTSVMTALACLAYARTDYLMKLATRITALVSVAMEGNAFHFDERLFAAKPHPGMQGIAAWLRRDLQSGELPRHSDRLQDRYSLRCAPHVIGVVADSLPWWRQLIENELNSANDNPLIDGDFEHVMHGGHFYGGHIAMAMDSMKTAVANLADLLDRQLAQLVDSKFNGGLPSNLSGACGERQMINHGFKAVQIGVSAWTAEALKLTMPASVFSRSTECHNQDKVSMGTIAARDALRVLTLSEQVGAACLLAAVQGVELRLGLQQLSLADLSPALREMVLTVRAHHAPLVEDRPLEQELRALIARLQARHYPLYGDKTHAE
Assay: UV assay, cinnamic acid formation at […] nm
Assay type: biochemical
Settings: 10 mM substrate, 20 mM PBS pH 7.5, 25 °C

N[C@@H](Cc1ccccc1)C(=O)O [L-phenylalanine]
UV assay, cinnamic acid formation at 290 nm: They presented a slight activity towards L‐phenylalanine.
